# Measured values from PMC5400565, “Real-time near-infrared fluorescence imaging using cRGD-ZW800-1 for intraoperative visualization of multiple cancer types” (Oncotarget, 2017).
# What was measured:
# Adrenergic α1A = target: T1, Adrenergic α1A (Homo sapiens, UniProt P35348); experiment: Off-target screening (Eurofins Cerep), α1A; assay type: binding
# T1 construct: Eurofins Cerep SA (contract screening)
# T1 sequence (P35348 1-466): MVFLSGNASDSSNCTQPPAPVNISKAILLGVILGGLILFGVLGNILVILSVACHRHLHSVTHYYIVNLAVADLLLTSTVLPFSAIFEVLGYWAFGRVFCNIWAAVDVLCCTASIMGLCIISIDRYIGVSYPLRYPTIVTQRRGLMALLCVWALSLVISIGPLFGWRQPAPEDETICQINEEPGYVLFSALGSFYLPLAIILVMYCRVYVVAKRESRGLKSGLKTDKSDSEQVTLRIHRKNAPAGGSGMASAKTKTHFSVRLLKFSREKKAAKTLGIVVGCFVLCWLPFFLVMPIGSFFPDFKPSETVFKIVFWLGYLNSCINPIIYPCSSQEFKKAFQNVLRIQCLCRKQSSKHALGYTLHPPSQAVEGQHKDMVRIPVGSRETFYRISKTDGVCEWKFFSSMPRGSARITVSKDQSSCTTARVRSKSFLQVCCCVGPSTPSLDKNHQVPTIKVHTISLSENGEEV
# Excerpt: (§1) Off-target interactions are binding of tracers to other components on the cell surface than the actual target site. These non-specific interactions are often of low affinity and easily missed, but can have significant effects. We outsourced the screening for in vitro for off-target interactions of cRGD-ZW800-1 to Eurofins Cerep SA, Le bois l’Evêque, France. They assessed the percentage of inhibition of a reference compound in 44 selected targets, including G protein-coupled receptors (GPCRs), transporters, ion channels, nuclear receptors, kinases and other non-kinase enzymes. These targets were recommended by four major pharmaceutical companies. The complete list is included in Supplementary Table 1 of the Supplementary Data. Each assay was performed twice using 10 μM cRGD-ZW800-1 and a reference compound. Inhibition higher than 50% was considered to represent a significant effect of cRGD-ZW800-1. Results showing between 20% and 50% were considered weak to moderate effects, while lower than 20% was not considered significant and mostly attributable to variability of the signal around the control level.
# Adrenergic α2A = target: T2, Adrenergic α2A (Homo sapiens, UniProt P08913); experiment: Off-target screening (Eurofins Cerep), α2A; assay type: binding
# T2 construct: Eurofins Cerep SA (contract screening)
# T2 sequence (P08913 whole entry): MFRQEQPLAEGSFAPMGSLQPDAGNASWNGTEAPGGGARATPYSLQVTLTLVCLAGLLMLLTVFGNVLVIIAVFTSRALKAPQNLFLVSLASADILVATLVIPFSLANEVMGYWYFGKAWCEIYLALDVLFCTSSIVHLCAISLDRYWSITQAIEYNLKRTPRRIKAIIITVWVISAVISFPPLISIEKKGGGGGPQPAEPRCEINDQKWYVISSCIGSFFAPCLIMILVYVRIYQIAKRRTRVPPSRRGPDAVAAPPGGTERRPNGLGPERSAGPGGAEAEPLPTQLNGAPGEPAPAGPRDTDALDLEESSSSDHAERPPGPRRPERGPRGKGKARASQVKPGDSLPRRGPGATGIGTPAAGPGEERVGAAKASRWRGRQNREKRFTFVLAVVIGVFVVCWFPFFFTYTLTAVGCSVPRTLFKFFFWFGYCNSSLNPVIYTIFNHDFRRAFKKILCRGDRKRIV
# dopamine receptor D2S = target: T3, dopamine receptor D2S (Homo sapiens, UniProt P14416); experiment: Off-target screening (Eurofins Cerep), D2S; assay type: binding
# T3 construct: Eurofins Cerep SA (contract screening)
# T3 sequence (P14416 1-414 isoform P14416-2): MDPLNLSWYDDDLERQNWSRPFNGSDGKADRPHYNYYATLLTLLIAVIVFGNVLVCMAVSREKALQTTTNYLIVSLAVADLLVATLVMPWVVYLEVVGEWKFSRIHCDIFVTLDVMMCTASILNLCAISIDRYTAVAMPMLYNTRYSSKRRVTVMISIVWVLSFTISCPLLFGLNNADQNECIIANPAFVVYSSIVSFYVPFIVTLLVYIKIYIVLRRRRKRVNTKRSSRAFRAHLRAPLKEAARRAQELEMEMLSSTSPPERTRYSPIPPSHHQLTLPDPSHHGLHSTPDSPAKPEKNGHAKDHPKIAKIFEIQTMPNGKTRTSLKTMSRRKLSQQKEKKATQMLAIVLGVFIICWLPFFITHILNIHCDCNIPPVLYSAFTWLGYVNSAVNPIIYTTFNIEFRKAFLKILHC
# Serotonin channels 5-HT3 = target: T4, Serotonin channels 5-HT3 (Homo sapiens, UniProt P46098); experiment: Off-target screening (Eurofins Cerep), 5-HT3; assay type: binding
# T4 construct: Eurofins Cerep SA (contract screen)
# T4 sequence (P46098 24-478): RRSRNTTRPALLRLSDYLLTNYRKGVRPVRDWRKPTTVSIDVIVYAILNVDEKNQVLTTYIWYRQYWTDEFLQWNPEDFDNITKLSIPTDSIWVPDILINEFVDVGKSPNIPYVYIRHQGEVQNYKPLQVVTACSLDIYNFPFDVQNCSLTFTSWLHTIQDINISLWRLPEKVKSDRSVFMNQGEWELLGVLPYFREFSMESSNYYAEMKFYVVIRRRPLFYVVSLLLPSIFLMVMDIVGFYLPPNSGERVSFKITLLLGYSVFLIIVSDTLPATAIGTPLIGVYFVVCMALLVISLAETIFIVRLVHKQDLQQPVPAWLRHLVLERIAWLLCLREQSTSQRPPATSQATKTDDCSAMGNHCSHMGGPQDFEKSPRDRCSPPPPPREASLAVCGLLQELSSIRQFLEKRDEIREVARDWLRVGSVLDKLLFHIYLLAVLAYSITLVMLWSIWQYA
# [1] = target: Ca2+ channel (L, dihydropyridine site) (Rattus norvegicus, UniProt P22002); experiment: Off-target screening (Eurofins Cerep), Ca2+ channel; assay type: binding
# Chain of Ca2+ channel (L, dihydropyridine site) (P22002 whole entry): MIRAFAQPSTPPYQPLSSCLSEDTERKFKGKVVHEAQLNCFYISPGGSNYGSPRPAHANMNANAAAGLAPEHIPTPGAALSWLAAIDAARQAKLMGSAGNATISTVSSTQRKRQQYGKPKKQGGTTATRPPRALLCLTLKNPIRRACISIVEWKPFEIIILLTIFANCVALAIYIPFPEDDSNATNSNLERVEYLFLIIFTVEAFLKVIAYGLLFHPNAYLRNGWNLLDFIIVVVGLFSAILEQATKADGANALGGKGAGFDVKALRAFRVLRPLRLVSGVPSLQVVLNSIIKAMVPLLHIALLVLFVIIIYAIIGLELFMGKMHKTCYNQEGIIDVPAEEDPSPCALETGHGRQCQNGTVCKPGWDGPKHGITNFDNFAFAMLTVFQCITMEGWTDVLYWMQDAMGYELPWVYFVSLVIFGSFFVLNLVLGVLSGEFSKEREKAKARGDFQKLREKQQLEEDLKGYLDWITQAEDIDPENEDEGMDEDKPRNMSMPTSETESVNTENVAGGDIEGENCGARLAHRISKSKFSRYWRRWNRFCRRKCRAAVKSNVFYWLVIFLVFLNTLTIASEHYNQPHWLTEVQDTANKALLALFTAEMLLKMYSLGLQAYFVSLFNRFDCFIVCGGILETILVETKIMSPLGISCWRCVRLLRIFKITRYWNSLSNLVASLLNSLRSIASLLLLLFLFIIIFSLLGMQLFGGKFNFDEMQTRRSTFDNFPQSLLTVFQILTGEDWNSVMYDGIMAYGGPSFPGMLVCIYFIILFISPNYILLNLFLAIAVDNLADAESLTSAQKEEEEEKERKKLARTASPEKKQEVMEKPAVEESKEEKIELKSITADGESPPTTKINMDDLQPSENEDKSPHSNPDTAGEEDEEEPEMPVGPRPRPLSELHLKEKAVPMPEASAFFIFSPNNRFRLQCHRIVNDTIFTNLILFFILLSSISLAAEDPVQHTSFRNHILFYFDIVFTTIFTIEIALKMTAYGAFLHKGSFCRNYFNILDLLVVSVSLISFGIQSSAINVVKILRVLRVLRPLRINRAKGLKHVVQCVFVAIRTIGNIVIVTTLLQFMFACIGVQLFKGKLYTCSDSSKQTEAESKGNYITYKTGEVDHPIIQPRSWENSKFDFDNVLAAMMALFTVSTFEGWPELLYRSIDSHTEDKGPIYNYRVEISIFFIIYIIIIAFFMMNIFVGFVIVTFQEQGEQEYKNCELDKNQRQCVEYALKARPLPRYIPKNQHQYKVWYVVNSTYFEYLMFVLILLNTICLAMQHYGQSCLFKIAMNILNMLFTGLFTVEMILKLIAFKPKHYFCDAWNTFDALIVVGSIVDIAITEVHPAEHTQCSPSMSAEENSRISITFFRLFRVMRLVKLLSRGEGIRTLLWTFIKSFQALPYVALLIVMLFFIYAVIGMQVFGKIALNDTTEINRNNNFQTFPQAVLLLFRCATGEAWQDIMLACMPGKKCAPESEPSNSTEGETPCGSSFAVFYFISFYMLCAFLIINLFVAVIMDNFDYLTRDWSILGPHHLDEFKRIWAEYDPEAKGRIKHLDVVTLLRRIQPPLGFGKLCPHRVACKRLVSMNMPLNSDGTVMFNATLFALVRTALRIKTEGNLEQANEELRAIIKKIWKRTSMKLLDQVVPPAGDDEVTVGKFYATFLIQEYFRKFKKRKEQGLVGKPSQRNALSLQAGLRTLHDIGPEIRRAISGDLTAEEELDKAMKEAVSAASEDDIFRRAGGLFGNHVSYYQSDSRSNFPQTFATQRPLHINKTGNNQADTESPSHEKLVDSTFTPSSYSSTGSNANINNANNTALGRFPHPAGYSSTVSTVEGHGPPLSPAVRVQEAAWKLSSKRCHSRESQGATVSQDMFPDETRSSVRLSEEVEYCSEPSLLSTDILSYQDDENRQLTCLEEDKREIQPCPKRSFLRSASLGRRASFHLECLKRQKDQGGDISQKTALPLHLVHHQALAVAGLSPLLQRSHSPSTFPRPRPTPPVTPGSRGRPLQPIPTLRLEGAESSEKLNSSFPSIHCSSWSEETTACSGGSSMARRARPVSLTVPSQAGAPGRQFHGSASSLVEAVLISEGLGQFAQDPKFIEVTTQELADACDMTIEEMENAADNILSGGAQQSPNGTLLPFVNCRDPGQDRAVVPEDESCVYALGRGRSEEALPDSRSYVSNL
# Excerpt: as §1
# HT-29 colorectal tumors = experiment: NIR fluorescence imaging, HT-29 colorectal tumors, dose-ranging; assay type: in vivo, mice
# Procedure: To induce subcutaneous tumors, colorectal cancer cells (HT-29) were injected at 4 sites on the back (500,000 cells per spot). Subsequently, these colorectal tumor cells were transplanted on the colon of other mice, as described by Tseng et al.. Approximately 500,000 pancreatic tumor cells (BxPC-3) were injected into the pancreas, as previously described by Kim et al.. Approximately 40,000 oral tumor cells (OSC-19) were injected in the tongue, as previously described by van Driel et al.. Approximately 500,000 breast tumor cells (MCF-7) were injected in both sides of the mammary fat pad to induce breast cancer tumors.
# All animals were imaged using a Pearl® imager (LI-COR, Lincoln, NE) and an original FLARE® prototype. Animals with HT-29 tumors were imaged at 4 and 24 h post injection; animals with BxPC-3 and OSC-19 tumors at 4 h only. Animals with MCF-7 tumors were imaged at 0.5, 1, 2, 4, 6, 8, 24 and 48 h post injection. […] TBRs were calculated by dividing the tumor signal by the background signal. […]
# Mice were administered with 0.25 (HT-29 model only), 1.0, 10, or 30 nmol cRGD-ZW800-1 to evaluate tumor signals, biodistribution, and to calculate TBRs (n = 3 per dose group). At 4 h (BxPC-3 model) and 24 h (HT-29 model) after injection, mice were fully dissected and fluorescence intensity of their organs was measured.
# [2] = Pharmacokinetics in mice without tumors; assay type: in vivo
# Procedure: cRGD-ZW800-1 was diluted in 0.05 mM HEPES buffered mouse serum to the concentrations 5.00, 4.50, 4.00, 3.50, 3.00, 2.50, 2.00, 1.50, 1.00, 0.50, 0.25, 0.13, 0.06, 0.03, and 0.02 μM. A calibration curve was created by measuring each concentration in 60 μL capillary tubes (Hirschmann® Laborgeräte GmbH and co. KG, Eberstadt, Germany) using the FLARE® with exposure times of: 1, 2, 5, 10, 25, 50, 100, 200, 500, 1000, and 2000 msec. Data were plotted in fluorescence intensity over concentration (μM) (Supplementary Figure 2, Supplementary Data). For each exposure time, the formula of the linear regression line was calculated. Subsequently, 5 mice without tumors were injected with 10 nmol cRGD-ZW800-1 via the lateral tail vein. The contralateral lateral tail vein was used to draw blood on the time points -5, 1, 6, 10, 20, 30, 40, 50, 60, 90, 120, and 240 min. post injection. Blood samples were absorbed using 60 μL capillary tubes and immediately measured using the FLARE® with the same exposure times. Saturated images and those under the detection limit were excluded from analysis. Each measurement was calculated back to its concentration using the matching formulas (Supplementary Figure 3, Supplementary Data). The mean of each formula output was used as the concentration. Data was analyzed using NONMEM® software (Icon Development Solutions, Ellicott City, MD, U.S.A.). Data were plotted in logarithmic and linear concentration (μM) over time (min).
# [3] = 10 μM cRGD-ZW800-1, format H, An, performed twice, read-out: % Inhibition of Control Specific Binding
# [4] = 10 μM, mean of 2, read-out: % of Control Specific Binding Mean
# [5] = mice, 10 nmol i.v., mean ± SD, n = 5
structure (smiles),measurement,setting,value
CC1(C)C(/C=C/C2=C(Oc3ccc(CCC(=O)NCCCC[C@@H]4NC(=O)[C@@H](Cc5ccc(O)cc5)NC(=O)[C@H](CC(=O)O)NC(=O)CNC(=O)[C@H](CCCNC(=N)N)NC4=O)cc3)C(=C/C=C3/N(CCC[N+](C)(C)C)c4ccc(S(=O)(=O)O)cc4C3(C)C)/CCC2)=[N+](CCC[N+](C)(C)C)c2ccc(S(=O)(=O)O)cc21 [cRGD-ZW800-1],inhibition at 10 µM,Adrenergic α1A; [3],9%
same,remaining activity at 10 µM,Adrenergic α1A; [4],90.6%
same,inhibition at 10 µM,Adrenergic α2A; [3],-4%
same,remaining activity at 10 µM,Adrenergic α2A; [4],104%
same,inhibition at 10 µM,dopamine receptor D2S; [3],22%
same,remaining activity at 10 µM,dopamine receptor D2S; [4],78.2%
same,inhibition at 10 µM,Serotonin channels 5-HT3; read-out: % Inhibition of Control Specific Binding,12%
same,remaining activity at 10 µM,Serotonin channels 5-HT3; read-out: % of Control Specific Binding Mean,87.7%
same,inhibition at 10 µM,"[1]; Ca2+ channel (L, dihydropyridine site), 10 μM cRGD-ZW800-1, format An, performed twice, read-out: % Inhibition of Control Specific Binding",15%
same,remaining activity at 10 µM,"[1]; Ca2+ channel, 10 μM, mean of 2, read-out: % of Control Specific Binding Mean",84.6%
same,TBRs at 4 and 24 h post injection,"HT-29 colorectal tumors; HT-29, 1, 10 and 30 nmol dose groups, n = 3 per dose group",> 2
same,optimal dose,"HT-29 colorectal tumors; mice, doses of 0.25, 1.0, 10, 30 nmol explored, Pearl and FLARE",10 nmol
same,Clearance,"[2]; mice, 10 nmol i.v., mean systemic clearance ± SD, n = 5",0.25 ± 0.06 mL/min
same,Distribution (α) half-life,[2]; [5],0.243 ± 0.0283 h
same,Terminal (β) half-life,[2]; [5],1.18 ± 0.157 h
same,maximal concentration in serum,"[2]; mice, 10 nmol i.v., measured at 1 minute post injection, n = 5, fluorescence (FLARE) with calibration curve",1.17 µM
same,AUC,"[2]; mice, 10 nmol i.v., trapezoid rule, mean ± SD, n = 5",38.9 ± 8.9
same,Half-life,"[2]; mice, blood, 10 nmol i.v., calculated via ln(2)/k10, mean ± SD, n = 5",0.422 ± 0.107 h
same,Elimination (β) half-life,[2]; mouse no. 1,1.08 h
same,Elimination (β) half-life,[2]; mouse no. 2,1.42 h
same,Elimination (β) half-life,[2]; mouse no. 3,1.14 h
same,Elimination (β) half-life,[2]; mouse no. 4,1.25 h
same,Elimination (β) half-life,[2]; mouse no. 5,1.03 h
